According to PubChem BioAssay (NCI):
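Protocol summary: plate cells (96-well), add compound at 5 concentrations, incubate 48 h, interpolate endpoints linearly. GI50 marks 50% less growth. TGI denotes the concentration required for complete inhibition of growth.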

Assays:
Assay in all cases: NCI-60 cell line screen, 48 h
CAKI-1 renal = tested on: CAKI-1 renal
CCRF-CEM leukemia = tested on: CCRF-CEM leukemia
HOP-92 NSCLC = tested on: HOP-92 NSCLC
NCI-H460 lung = tested on: NCI-H460 lung
OVCAR-3 ovarian = tested on: OVCAR-3 ovarian
SK-MEL-2 melanoma = tested on: SK-MEL-2 melanoma
SK-MEL-28 melanoma = tested on: SK-MEL-28 melanoma
SK-MEL-5 melanoma = tested on: SK-MEL-5 melanoma
SK-OV-3 ovarian = tested on: SK-OV-3 ovarian
SW-620 colon = tested on: SW-620 colon

Compound | TGI (CAKI-1 renal) | TGI (CCRF-CEM leukemia) | TGI (HOP-92 NSCLC) | TGI (NCI-H460 lung) | TGI (OVCAR-3 ovarian) | TGI (SK-MEL-2 melanoma) | TGI (SK-MEL-28 melanoma) | TGI (SK-MEL-5 melanoma) | TGI (SK-OV-3 ovarian) | TGI (SW-620 colon) | GI50 (CAKI-1 renal) | GI50 (CCRF-CEM leukemia) | GI50 (HOP-92 NSCLC) | GI50 (OVCAR-3 ovarian) | GI50 (SK-MEL-2 melanoma) | GI50 (SK-MEL-28 melanoma) | GI50 (SK-MEL-5 melanoma) | GI50 (SK-OV-3 ovarian) | GI50 (SW-620 colon) | GI50 (NCI-H460 lung)
Nc1ccc2c(c1)C1=NNC(=O)CC1C2 (stereo unspecified) | > 100 µM | > 100 µM | > 100 µM | > 100 µM | > 31.6 µM | > 100 µM | > 100 µM | > 100 µM | > 100 µM | > 100 µM | – | – | – | – | – | – | – | – | – | –
COc1cc(-c2n/c(=C\c3c(O)[nH]c4ccc(Cl)cc34)cc3c2=Nc2ccccc2-3)cc(OC)c1OC | 6.72 µM | 37.3 µM | 3.32 µM | – | 1.53 µM | 4.9 µM | 4.41 µM | 5.63 µM | 4.79 µM | 1.6 µM | 1.97 µM | 0.849 µM | 1.32 µM | 0.417 µM | 2.21 µM | 2.04 µM | 1.83 µM | 2.16 µM | 0.366 µM | –
CN1CCN(c2ccc(-c3ccc4ncc(C#N)c(Nc5ccc(F)c(Cl)c5)c4c3)cc2)CC1 | 3.01 µM | 6.52 µM | 28.4 µM | 6.67 µM | 6.25 µM | 6.72 µM | 3.66 µM | 5.43 µM | 15.1 µM | 14.5 µM | 1.01 µM | 2.2 µM | 3.47 µM | 1.72 µM | 2.3 µM | 1.79 µM | 2.19 µM | 2.9 µM | 2.81 µM | 2.05 µM
[N-]=[N+]=Nc1ccc(NCCCCCC(=O)ON2C(=O)CCC2=O)c([N+](=O)[O-])c1 | > 100 µM | – | 87.6 µM | > 100 µM | > 100 µM | > 100 µM | > 100 µM | > 100 µM | > 100 µM | > 100 µM | – | – | – | – | – | – | – | – | – | –
C=C(C)[C@@H]1CC[C@]2(C)CC[C@]3(C)[C@H](CC[C@@H]4[C@@]5(C)CC[C@H](OC(=O)c6ccccc6)C(C)(C)[C@@H]5CC[C@]43C)[C@@H]12 | > 100 µM | > 100 µM | > 100 µM | > 100 µM | > 100 µM | > 100 µM | > 100 µM | > 100 µM | > 100 µM | > 100 µM | – | – | – | – | – | – | – | – | – | –
O=C(N/C(=C\c1ccccc1[N+](=O)[O-])c1nc2ccccc2[nH]1)c1ccccc1 | > 100 µM | > 100 µM | > 100 µM | – | > 100 µM | > 100 µM | > 100 µM | > 100 µM | > 100 µM | > 100 µM | – | – | – | – | – | – | – | – | – | –
